The results in this text go back to paper PMC8659034, “Natural Xanthine Oxidase Inhibitor 5-O-Caffeoylshikimic Acid Ameliorates Kidney Injury Caused by Hyperuricemia in Mice” (Molecules, 2021).

Assay [1] addresses T1, xanthine oxidase (XOD) (Bos taurus, UniProt P80457).
T1 construct: gene XDH
Briefly: spectrophotometric uric acid formation assay at […] nm; reversibility plots. The format is biochemical.

The target in assay [2] is T1, xanthine oxidase (XOD). Briefly: spectrophotometric uric acid formation assay at […] nm, % inhibition at […]. The following applies: read-out: % inhibition at 100 μg/mL. The format is biochemical.

T1 sequence (P80457 2-1332): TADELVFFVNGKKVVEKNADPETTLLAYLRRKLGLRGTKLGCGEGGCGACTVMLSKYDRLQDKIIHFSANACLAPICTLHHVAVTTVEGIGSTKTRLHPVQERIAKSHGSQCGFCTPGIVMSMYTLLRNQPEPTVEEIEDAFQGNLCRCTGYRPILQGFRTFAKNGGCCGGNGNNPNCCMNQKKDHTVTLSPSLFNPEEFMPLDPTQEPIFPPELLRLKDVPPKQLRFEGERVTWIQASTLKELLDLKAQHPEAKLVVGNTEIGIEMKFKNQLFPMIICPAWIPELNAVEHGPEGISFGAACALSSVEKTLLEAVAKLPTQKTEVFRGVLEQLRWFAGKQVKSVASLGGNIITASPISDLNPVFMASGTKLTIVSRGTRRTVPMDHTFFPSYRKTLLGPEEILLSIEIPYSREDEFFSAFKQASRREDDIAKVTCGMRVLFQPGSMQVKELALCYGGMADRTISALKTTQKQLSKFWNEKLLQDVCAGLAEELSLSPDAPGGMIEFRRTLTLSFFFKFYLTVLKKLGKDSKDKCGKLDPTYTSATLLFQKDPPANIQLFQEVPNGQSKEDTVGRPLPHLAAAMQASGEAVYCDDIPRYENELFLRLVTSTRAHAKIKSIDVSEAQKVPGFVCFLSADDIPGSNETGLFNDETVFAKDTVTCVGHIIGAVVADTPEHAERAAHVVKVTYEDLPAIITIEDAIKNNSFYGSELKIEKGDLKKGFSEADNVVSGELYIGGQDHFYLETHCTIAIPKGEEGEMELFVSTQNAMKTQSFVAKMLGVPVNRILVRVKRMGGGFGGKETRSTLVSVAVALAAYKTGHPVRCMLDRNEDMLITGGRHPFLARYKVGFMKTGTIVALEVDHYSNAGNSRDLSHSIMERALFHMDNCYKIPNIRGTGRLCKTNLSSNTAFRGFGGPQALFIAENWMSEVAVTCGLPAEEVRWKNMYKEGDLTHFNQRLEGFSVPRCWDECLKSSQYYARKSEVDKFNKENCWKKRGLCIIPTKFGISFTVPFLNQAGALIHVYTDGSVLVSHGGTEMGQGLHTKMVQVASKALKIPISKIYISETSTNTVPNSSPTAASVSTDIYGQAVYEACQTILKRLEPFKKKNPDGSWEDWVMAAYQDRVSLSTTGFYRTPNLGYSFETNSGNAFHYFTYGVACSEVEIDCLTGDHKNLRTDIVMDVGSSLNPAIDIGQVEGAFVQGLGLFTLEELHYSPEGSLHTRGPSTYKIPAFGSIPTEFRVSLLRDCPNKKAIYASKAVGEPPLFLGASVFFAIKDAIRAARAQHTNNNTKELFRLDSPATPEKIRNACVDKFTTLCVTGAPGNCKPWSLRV

For `O=C(/C=C/c1ccc(O)c(O)c1)O[C@@H]1CC(C(=O)O)=C[C@@H](O)[C@H]1O` [compound 1, 5-O-caffeoylshikimic acid], on xanthine oxidase (XOD) [1], half-maximal inhibition (IC50) was put at 14 µM.
For the molecule `O=c1c(O)c(-c2ccc(O)c(O)c2)oc2cc(O)cc(O)c12` [compound 3, quercetin], the inhibition at 100 µg/mL at xanthine oxidase (XOD) [2] amounted to 82.1%.
On the same count and under the same terms, with `C[C@@H]1O[C@@H](O[C@H]2C(=O)c3c(O)cc(O)cc3O[C@@H]2c2ccc(O)c(O)c2)[C@H](O)[C@H](O)[C@H]1O` [compound 6, astilbin] the figure was 33.2%.
